Source: PMC5582420, “Hirsutine, an Indole Alkaloid of Uncaria rhynchophylla, Inhibits Late Step in Dengue Virus Lifecycle” (Frontiers in Microbiology, 2017)
pEC50: −log10 of the molar value.

What was measured:
[1] = test system: DENV-4 (09-48 strain); test: Virus titer by plaque assay in infected A549 cells, DENV-4; format: cell-based, Dengue virus; details: 10 μM, MOI 0.01, supernatant 72 hpi
Method: (§1) The viruses used in this study included DENV-1 (02-20 strain) ([Tajima et al., 2006]), DENV-2 (16681 strain), DENV-3 (09-59 strain), and DENV-4 (09-48 strain). The strains were cultured in Vero cells, and stored at -80°C. Dengue virus titer was determined by plaque assay as summarized below.
(§2) Baby hamster kidney-21 cells were cultured in a 12-well plate and infected with serial dilutions of virus suspension, then incubated at 37°C for 1 h. At 1 hpi, cells were incubated in EMEM containing 2% FBS and 1% methylcellulose. After 5 days of incubation, the cells were fixed with paraformaldehyde and stained with methylene blue. Virus titer was calculated as plaque-forming units (PFU)/mL. The half-maximal effective concentration (EC50) against each virus was calculated using the Reed and Muench method.
(§3) FIGURE 1 Hirsutine inhibits replication of dengue virus serotypes DENV-1–4. (A) Structural formula of hirsutine. (B) Hirsutine inhibits viral replication of all four serotypes. A549 cells were infected with DENV-1–4 at a multiplicity of infection (MOI) of 0.01 in the presence of 10 μM hirsutine. Cell culture supernatants were collected 72 hpi, and viral titers were determined by plaque assay. All data were normalized to their control (0 μM of hirsutine).

[2] = test system: DGL2 and DGL2-mut DENV-1 replicon; test: Transient subgenomic reporter replicon assay (Gaussia luciferase); details: 10 μM, A549 cells
Method: A549 cells were cultured in a 24-well plate and transfected with DGL2 and DGL2-mut using X-tremeGENE HP DNA transfection reagent (Roche, Basel, Switzerland); 10 μM of hirsutine was added at baseline. The cell culture medium was collected and replaced with fresh medium containing 10 μM of hirsutine every 24 h. The Gaussia luciferase activity in the culture medium was measured using a microplate reader.
(A) Schematic representation of the replicon system, which uses DGL2 and DGL2-mut. DGL2-mut was inserted in non-replicative mutation into RNA-dependent RNA polymerase (RdRp). CMVp, cytomegalovirus promoter; Gluc, secretory Gaussia luciferase; IRES, internal ribosome entry site; GAA, mutation in the active center for RdRp; and Rib, ribozyme sequence. (B) Replicon plasmids DGL2 and DGL2-mut were transfected to A549 cells in the presence of 10 μM hirsutine. After 24 and 72 h, luciferase activity in the culture supernatant was analyzed. Each data point represents the mean ± standard deviation from triplicate experiments.

[3] = test system: influenza A virus (subtype H3N2); parameters: method as in Takayama et al., 1997; Tietze and Zhou, 1999; details: ref Takayama et al., 1997, Tietze and Zhou, 1999; cited from earlier work
[4] = test system: DENV-NS3 protein expression, DENV-1; test: Western blot of DENV-NS3 protein in DENV-1-infected A549 cells; format: cell-based, Dengue virus; details: MOI 0.1 and 1.0, 18 hpi
Method: Western blotting was performed as described previously ([Hishiki et al., 2014]). Briefly, DENV-1-infected A549 cells were co-cultured with 10 μM hirsutine, 100 μM ribavirin, or 10 μM bromocriptine. Protein samples were separated by SDS-PAGE and transferred to polyvinylidene fluoride blotting membranes (GE Healthcare, Little Chalfont, United Kingdom). Anti-NS3 rabbit polyclonal antibodies (GTX124252; GeneTex, Irvine, CA, United States) and anti-glyceraldehyde-3-phosphate dehydrogenase (GAPDH) mouse monoclonal antibodies (MAB374; Millipore, Billerica, MA, United States) were used as primary antibodies.
A549 cells were infected with DENV-1 at a MOI of 0.1 and 1.0 in the presence of 10 μM hirsutine (Hi), 100 μM ribavirin (Ri), or 10 μM bromocriptine (Br). Cell lysate was collected 18 h post-infection, and DENV-NS3 (top) and GAPDH (bottom) protein expression levels were assessed by Western blot.

[5] = test system: DENV-3 (09-59 strain); test: Virus titer by plaque assay in infected A549 cells, DENV-3; format: cell-based, Dengue virus; details: 10 μM, MOI 0.01, supernatant 72 hpi
Method: as §1, §2, §3

[6] = test system: DENV-1 (02-20 strain); test: Virus titer by plaque assay in infected A549 cells, DENV-1; format: cell-based, Dengue virus; details: 10 μM, MOI 0.01, supernatant 72 hpi
Method: as §1, §2, §3

[7] = test system: DENV-1; test: Time-of-drug-elimination assay; format: cell-based, Dengue virus; details: 10 μM, A549, MOI 1.0, titer at 24 hpi
Method: Next, the cells were rinsed with phosphate-buffered saline twice, and fresh medium containing 10 μM hirsutine was added. At 2, 4, and 6 hpi, the cells were rinsed with phosphate-buffered saline twice and fresh medium was added. At 24 hpi, the cell culture supernatant was collected, and viral titer was measured by plaque assay.
(§4) FIGURE 2 Hirsutine inhibits the late stage of the dengue virus lifecycle. (A) Time-of-drug-addition assay. Hirsutine (10 μM) was added at 0, 2, 4, 6, 8, 12, and 18 h post-DENV-1 infection. After 24 h, virus titers in the culture supernatant were analyzed by plaque assay. (B) Time-of-drug-elimination assay. Hirsutine (10 μM) was treated for 0–2, 0–4, and 0–6 h post-DENV-1 infection. After 24 h, virus titers in the culture supernatant were analyzed by plaque assay. ^∗p < 0.05. […] DMSO, dimethyl sulfoxide; hpi, hours post-infection; and PFU, plaque-forming units.

[8] = test system: DENV-1; test: Time-of-drug-addition assay; format: cell-based, Dengue virus; details: 10 μM added at 0, 2, 4, 6, 8, 12, 18 hpi; A549, MOI 1.0; titer at 24 hpi
Method: Next, the cells were rinsed twice with phosphate-buffered saline, and fresh medium was added. At 0, 2, 4, 6, 8, 12, and 18 hpi, hirsutine at a final concentration of 10 μM was added to the infected cells. At 24 hpi, the cell culture supernatant was collected, and viral titer was assessed by plaque assay.
as §4

[9] = MTT cytotoxicity assay; format: cell-based; details: human, compounds, A549 cells, 3-day incubation
Method: Human lung carcinoma cells (A549) and baby hamster kidney cells (BHK-21) were maintained in Eagle’s minimum essential medium (EMEM; Life Technologies, Carlsbad, CA, United States) supplemented with 10% fetal bovine serum (FBS; JR Scientific, Woodland, CA, United States), penicillin, and streptomycin sulfate (Nacalai Tesque, Kyoto, Japan) at 37°C with 5% CO2. Hybridoma-producing anti-E antibody (HB-112) was maintained in RPMI 1640 medium (Life Technologies, Carlsbad, CA, United States) supplemented with 10% FBS and antibiotics at 37°C with 5% CO2.
Cell viability was assessed by 3-(4,5-dimethylthiazol-2-yl)-2,5-diphenyltetrazolium bromide (MTT) assay. A549 cells were cultured in a 96-well plate with the selected compound (0–10 μM) or extract (0–100 μg/mL). After a 3-day incubation, 30 μL of 0.5% MTT solution was added to each well. After incubation for 3 h, the supernatant was replaced with 100 μL of methanol with 1% Triton X-100, and then vortexed to dissolve the formazan. Absorbance at 565 nm and reference at 655 nm were measured using a microplate reader (Berthold Technologies, Bad Wildbad, Germany). The half-maximal cytotoxicity concentration (CC50) was calculated using the Reed and Muench method ([Reed and Muench, 1938]).

[10] = test system: DENV-2 (16681 strain); test: Virus titer by plaque assay in infected A549 cells, DENV-2; format: cell-based, Dengue virus; details: 10 μM, MOI 0.01, supernatant 72 hpi
Method: as §1, §2, §3

[11] = test system: DENV-1 (02-20 strain); test: Plaque assay, EC50 against DENV-1 (fourth screening); format: cell-based, Dengue virus; details: compounds; for pEC50: Dengue virus, DENV1, against DENV-1, plaque assay, Reed and Muench method; for SI: selectivity index from CC50 and EC50

## CC[C@H]1CN2CCc3c([nH]c4ccccc34)[C@H]2C[C@@H]1/C(=C\OC)C(=O)OC [Hirsutine]
[1]
  virus titer: decreased
[2]; DGL2, 24 h and 72 h post-transfection
  Gaussia luciferase activity in culture supernatant: did not reduce luciferase activity levels
[2]; non-replicate DGL2-mut, 24 h and 72 h post-transfection
  Gaussia luciferase activity in culture supernatant: did not reduce luciferase activity levels
[3]
  EC50 more effective than ribavirin: over 10 fold
[4]; 10 μM
  NS3 protein expression levels: did not change
[5]
  virus titer: decreased
[6]
  virus titer: decreased
[7]; 2-h treatment
  virus titer in culture supernatant, time-of-drug-elimination: did not decrease the virus titer
[7]; 4-h treatment
  virus titer in culture supernatant, time-of-drug-elimination: did decrease
[8]
  virus titer in culture supernatant, time-of-drug-addition: reduced the virus titer significantly up to 12 hpi
[9]
  CC50 at 3 day: > 10 µM
[10]
  virus titer: decreased
[11]
  pEC50: 5.71
  SI: >5.3

## C[C@H]1CC[C@@]2(OC1)O[C@H]1C[C@H]3[C@@H]4CC[C@@H]5C[C@@H](O[C@@H]6O[C@H](CO)[C@H](O)[C@H](O)[C@H]6O[C@@H]6O[C@H](CO)[C@@H](O)[C@H](O)[C@H]6O)CC[C@]5(C)[C@H]4CC[C@]3(C)[C@H]1[C@@H]2C [Timosaponin-AIII]
[9]
  CC50 at 3 day: > 10 µM
[11]
  pEC50: 5.77
  SI: >5.9

## CC(C)C[C@H]1C(=O)N2CCC[C@H]2[C@]2(O)O[C@](NC(=O)[C@@H]3C=C4c5cccc6[nH]c(Br)c(c56)C[C@H]4N(C)C3)(C(C)C)C(=O)N12 [bromocriptine]
[4]; 10 μM
  NS3 protein expression levels: decreased significantly

## NC(=O)c1ncn([C@@H]2O[C@H](CO)[C@@H](O)[C@H]2O)n1 [ribavirin]
[4]; 100 μM
  NS3 protein expression levels: decreased significantly
